Experimental data: ChEMBL document CHEMBL5126523, “Recent advances in DDR (DNA damage response) inhibitors for cancer therapy” (Eur J Med Chem, 2022)
One block for each compound: values may come before it.

Assays:
[1] = target: T1, Wee1-like protein kinase (Homo sapiens, UniProt P30291); experiment: Inhibition of WEE1 (unknown origin) using LSNLYHQGKFLQTFCGSPLYRRR polypeptide as substrate incubated for 40 mins in presence of [gamma-33P]-ATP by scintillation counting method
[2] = Half life in BALB/c nude mouse at 1 mg/kg, iv measured for 0.08 to 24 hrs by LC-MS/MS analysis; assay type: ADME, organism-based; conditions: in vivo, time 0.08-24 hrs
[3] = AUC (0 to last) in BALB/c nude mouse at 1 mg/kg, iv measured for 0.08 to 24 hrs by LC-MS/MS analysis; assay type: ADME, organism-based; set-up: time 0.08-24 hrs, dose 1 mg/kg, route iv; conditions: in vivo
[4] = Oral bioavailability in BALB/c nude mouse at 1 mg/kg, iv measured for 0.08 to 24 hrs by LC-MS/MS analysis; assay type: ADME, organism-based; conditions: in vivo, time 0.08-24 hrs
[5] = system: LoVo; experiment: Antitumor activity against human LoVo cells xenografted in BALB/c nude mouse assessed as tumor growth inhibition at 40 mg/kg,iv bid by vernier caliper method relative to control; assay type: functional; conditions: read-out: TGI
[6] = target: DNA-dependent protein kinase catalytic subunit (Homo sapiens, UniProt P78527); experiment: Inhibition of DNA-PK (unknown origin)
[7] = Half life in mouse at 0.4 mg/kg, iv; assay type: ADME, organism-based; conditions: in vivo
[8] = AUC (0 to last) in mouse at 0.4 mg/kg, iv; assay type: ADME, organism-based; set-up: time 0 - last, dose 0.4 mg/kg, route iv; conditions: in vivo
[9] = target: T2, Protein cereblon/Wee1-like protein kinase (Homo sapiens, UniProt P30291+Q96SW2); experiment: PROTAC activity at CRBN/recombinant WEE1 (unknown origin) assessed as induction of WEE1 degradation by FRET based Lantha Screen assay; assay type: protein assay
T2 sequence (P30291 whole entry): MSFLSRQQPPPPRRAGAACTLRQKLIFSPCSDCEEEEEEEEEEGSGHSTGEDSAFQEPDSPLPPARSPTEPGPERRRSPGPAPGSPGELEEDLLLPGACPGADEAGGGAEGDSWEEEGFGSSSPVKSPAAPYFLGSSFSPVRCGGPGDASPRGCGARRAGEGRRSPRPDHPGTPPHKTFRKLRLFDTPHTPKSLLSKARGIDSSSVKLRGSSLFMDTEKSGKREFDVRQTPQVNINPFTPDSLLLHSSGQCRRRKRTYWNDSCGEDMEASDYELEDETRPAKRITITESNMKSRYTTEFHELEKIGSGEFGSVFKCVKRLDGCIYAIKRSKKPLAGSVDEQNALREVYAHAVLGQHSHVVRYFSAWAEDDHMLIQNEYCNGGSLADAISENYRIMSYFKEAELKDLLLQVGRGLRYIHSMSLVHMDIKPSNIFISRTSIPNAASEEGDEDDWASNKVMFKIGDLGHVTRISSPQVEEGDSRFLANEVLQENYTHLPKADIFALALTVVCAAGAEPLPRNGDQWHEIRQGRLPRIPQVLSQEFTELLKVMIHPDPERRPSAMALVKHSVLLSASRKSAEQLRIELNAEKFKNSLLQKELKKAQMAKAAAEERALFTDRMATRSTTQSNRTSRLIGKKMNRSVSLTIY
T2 sequence (Q96SW2 whole entry): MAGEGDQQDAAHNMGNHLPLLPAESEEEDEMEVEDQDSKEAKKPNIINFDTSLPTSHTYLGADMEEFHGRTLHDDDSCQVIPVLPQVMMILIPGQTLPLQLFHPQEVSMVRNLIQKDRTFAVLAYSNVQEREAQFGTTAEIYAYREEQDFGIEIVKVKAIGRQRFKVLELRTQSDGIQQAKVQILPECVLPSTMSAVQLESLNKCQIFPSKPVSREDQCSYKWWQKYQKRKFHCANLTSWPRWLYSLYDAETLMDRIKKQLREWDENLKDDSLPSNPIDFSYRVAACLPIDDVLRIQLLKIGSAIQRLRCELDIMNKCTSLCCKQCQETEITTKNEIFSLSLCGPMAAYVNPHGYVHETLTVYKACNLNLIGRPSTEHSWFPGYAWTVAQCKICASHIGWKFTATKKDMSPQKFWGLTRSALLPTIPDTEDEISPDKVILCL

[10] = target: T2, Protein cereblon/Wee1-like protein kinase; experiment: PROTAC activity at CRBN/WEE1 in human […] assessed as induction of WEE1 degradation treated for 5 hrs by Western blot analysis; assay type: cell-based
[11] = Half life in BALB/c mouse at 0.4 mg/kg, iv by LC-MS/MS analysis; assay type: ADME, organism-based; conditions: in vivo
[12] = AUC (0 to last) in BALB/c mouse at 0.4 mg/kg, iv by LC-MS/MS analysis; assay type: ADME, organism-based; set-up: time 0 - last, dose 0.4 mg/kg, route iv; conditions: in vivo
[13] = Cmax in BALB/c mouse at 2 mg/kg, po by LC-MS/MS analysis; assay type: ADME, organism-based; set-up: dose 2 mg/kg, route po; conditions: in vivo
[14] = Tmax in BALB/c mouse at 2 mg/kg, po by LC-MS/MS analysis; assay type: ADME, organism-based; conditions: in vivo
[15] = Half life in BALB/c mouse at 2 mg/kg, po by LC-MS/MS analysis; assay type: ADME, organism-based; conditions: in vivo
[16] = AUC (0 to last) in BALB/c mouse at 2 mg/kg, po by LC-MS/MS analysis; assay type: ADME, organism-based; set-up: time 0 - last, dose 2 mg/kg, route po; conditions: in vivo
[17] = Oral bioavailability in BALB/c mouse at 2 mg/kg by LC-MS/MS analysis; assay type: ADME, organism-based; conditions: in vivo
[18] = system: NCI-H1703; experiment: Antitumor activity against human NCI-H1703 cells xenografted in BALB/c mouse assessed as tumor growth inhibition at 90 mg/kg, bid measured on day 21 by vernier caliper method relative to control; assay type: functional; conditions: NCI-H1703, 504 h, read-out: TGI
[19] = target: Serine/threonine-protein kinase Chk1 (Homo sapiens, UniProt O14757); experiment: Inhibition of N-terminal GST-tagged full-length recombinant human CHK1 expressed in baculovirus infected Sf9 insect cells using FAM-P10 peptide as substrate preincubated for 10 mins followed by substrate addition measured after 60 mins by ADP-Glo assay
Sequence of Serine/threonine-protein kinase Chk1 (O14757 whole entry): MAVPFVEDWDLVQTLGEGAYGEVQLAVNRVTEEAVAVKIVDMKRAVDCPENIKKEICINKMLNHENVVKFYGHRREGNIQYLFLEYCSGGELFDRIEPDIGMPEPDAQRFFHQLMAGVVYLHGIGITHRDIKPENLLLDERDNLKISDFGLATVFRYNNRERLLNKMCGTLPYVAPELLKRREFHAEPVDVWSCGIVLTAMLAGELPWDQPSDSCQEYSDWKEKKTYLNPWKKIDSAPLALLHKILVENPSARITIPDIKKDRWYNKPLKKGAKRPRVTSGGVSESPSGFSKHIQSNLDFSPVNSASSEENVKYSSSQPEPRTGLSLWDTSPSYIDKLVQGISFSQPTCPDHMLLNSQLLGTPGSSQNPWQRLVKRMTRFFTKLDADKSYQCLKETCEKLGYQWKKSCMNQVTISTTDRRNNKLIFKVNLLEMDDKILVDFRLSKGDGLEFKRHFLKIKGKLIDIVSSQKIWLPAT

[20] = AUC (0 to last) in Sprague-Dawley rat at 10 mg/kg, iv by LC-MS/MS analysis; assay type: ADME, organism-based; set-up: time 0 - last, dose 10 mg/kg, route iv; conditions: in vivo
[21] = system: HT-29; experiment: Antitumor activity against human HT-29 cells xenografted in BALB/c mouse assessed as tumor growth inhibition relative to control; assay type: functional
[22] = target: T1, Wee1-like protein kinase; experiment: Inhibition of N-terminal GST-tagged wild-type WEE1 (215 to 646 residues) (unknown origin) expressed in Sf21 insect cells incubated for 60 mins in presence of ATP by ELISA
[23] = Cmax in ICR mouse at 3 mg/kg, iv measured for 2 to 1440 mins; assay type: ADME, organism-based; set-up: time upper 1440 min, dose 3 mg/kg, time lower 2 min, route iv; conditions: in vivo
[24] = Tmax in ICR mouse at 3 mg/kg, iv measured for 2 to 1440 mins; assay type: ADME, organism-based; conditions: in vivo, time 2-1440 min
[25] = Half life in ICR mouse at 3 mg/kg, iv measured for 2 to 1440 mins; assay type: ADME, organism-based; conditions: in vivo, time 2-1440 min
[26] = AUC (0 to last) in ICR mouse at 3 mg/kg, iv measured for 2 to 1440 mins; assay type: ADME, organism-based; set-up: time 2-1440 min, dose 3 mg/kg, route iv; conditions: in vivo
[27] = Cmax in ICR mouse at 10 mg/kg, po measured for 5 to 1440 mins; assay type: ADME, organism-based; set-up: time upper 1440 min, dose 10 mg/kg, time lower 5 min, route po; conditions: in vivo
[28] = Tmax in ICR mouse at 10 mg/kg, po measured for 5 to 1440 mins; assay type: ADME, organism-based; conditions: in vivo, time 5-1440 min
[29] = Half life in ICR mouse at 10 mg/kg, po measured for 5 to 1440 mins; assay type: ADME, organism-based; conditions: in vivo, time 5-1440 min
[30] = AUC (0 to last) in ICR mouse at 10 mg/kg, po measured for 5 to 1440 mins; assay type: ADME, organism-based; set-up: time 5-1440 min, dose 10 mg/kg, route po; conditions: in vivo
[31] = Oral bioavailability in ICR mouse at 10 mg/kg measured for 5 to 1440 mins; assay type: ADME, organism-based; conditions: in vivo, time 5-1440 min
[32] = Cmax in overnight fasted rat at 5 mg/kg, po via gavage measured for 0.25 to 24 hrs by LC/MS/MS analysis; assay type: ADME, organism-based; set-up: dose 5 mg/kg, time upper 24 hrs, time lower 0.25 hrs, route po; conditions: in vivo
[33] = AUC (0 to last) in overnight fasted rat at 5 mg/kg, po via gavage measured for 0.25 to 24 hrs by LC/MS/MS analysis; assay type: ADME, organism-based; set-up: time upper 24 hrs, dose 5 mg/kg, time lower 0.25 hrs, route po; conditions: in vivo
[34] = target: T1, Wee1-like protein kinase; experiment: Displacement of tracer 178 from N-terminal GST-fused human WEE1 (215 to 646 residues) expressed in baculovirus expression system preincubated for 5 mins followed by tracer addition measured after 60 mins by Lantha Screen EU assay
[35] = target: ATR/ATRIP (Homo sapiens, UniProt Q13535); experiment: Inhibition of human FLAG-tagged ATR/c-Myc-tagged ATRIP expressed in mammalian expression system using p53 as substrate incubated for 2 hrs by fluorescence based assay
Sequence of ATR/ATRIP (Q13535 whole entry): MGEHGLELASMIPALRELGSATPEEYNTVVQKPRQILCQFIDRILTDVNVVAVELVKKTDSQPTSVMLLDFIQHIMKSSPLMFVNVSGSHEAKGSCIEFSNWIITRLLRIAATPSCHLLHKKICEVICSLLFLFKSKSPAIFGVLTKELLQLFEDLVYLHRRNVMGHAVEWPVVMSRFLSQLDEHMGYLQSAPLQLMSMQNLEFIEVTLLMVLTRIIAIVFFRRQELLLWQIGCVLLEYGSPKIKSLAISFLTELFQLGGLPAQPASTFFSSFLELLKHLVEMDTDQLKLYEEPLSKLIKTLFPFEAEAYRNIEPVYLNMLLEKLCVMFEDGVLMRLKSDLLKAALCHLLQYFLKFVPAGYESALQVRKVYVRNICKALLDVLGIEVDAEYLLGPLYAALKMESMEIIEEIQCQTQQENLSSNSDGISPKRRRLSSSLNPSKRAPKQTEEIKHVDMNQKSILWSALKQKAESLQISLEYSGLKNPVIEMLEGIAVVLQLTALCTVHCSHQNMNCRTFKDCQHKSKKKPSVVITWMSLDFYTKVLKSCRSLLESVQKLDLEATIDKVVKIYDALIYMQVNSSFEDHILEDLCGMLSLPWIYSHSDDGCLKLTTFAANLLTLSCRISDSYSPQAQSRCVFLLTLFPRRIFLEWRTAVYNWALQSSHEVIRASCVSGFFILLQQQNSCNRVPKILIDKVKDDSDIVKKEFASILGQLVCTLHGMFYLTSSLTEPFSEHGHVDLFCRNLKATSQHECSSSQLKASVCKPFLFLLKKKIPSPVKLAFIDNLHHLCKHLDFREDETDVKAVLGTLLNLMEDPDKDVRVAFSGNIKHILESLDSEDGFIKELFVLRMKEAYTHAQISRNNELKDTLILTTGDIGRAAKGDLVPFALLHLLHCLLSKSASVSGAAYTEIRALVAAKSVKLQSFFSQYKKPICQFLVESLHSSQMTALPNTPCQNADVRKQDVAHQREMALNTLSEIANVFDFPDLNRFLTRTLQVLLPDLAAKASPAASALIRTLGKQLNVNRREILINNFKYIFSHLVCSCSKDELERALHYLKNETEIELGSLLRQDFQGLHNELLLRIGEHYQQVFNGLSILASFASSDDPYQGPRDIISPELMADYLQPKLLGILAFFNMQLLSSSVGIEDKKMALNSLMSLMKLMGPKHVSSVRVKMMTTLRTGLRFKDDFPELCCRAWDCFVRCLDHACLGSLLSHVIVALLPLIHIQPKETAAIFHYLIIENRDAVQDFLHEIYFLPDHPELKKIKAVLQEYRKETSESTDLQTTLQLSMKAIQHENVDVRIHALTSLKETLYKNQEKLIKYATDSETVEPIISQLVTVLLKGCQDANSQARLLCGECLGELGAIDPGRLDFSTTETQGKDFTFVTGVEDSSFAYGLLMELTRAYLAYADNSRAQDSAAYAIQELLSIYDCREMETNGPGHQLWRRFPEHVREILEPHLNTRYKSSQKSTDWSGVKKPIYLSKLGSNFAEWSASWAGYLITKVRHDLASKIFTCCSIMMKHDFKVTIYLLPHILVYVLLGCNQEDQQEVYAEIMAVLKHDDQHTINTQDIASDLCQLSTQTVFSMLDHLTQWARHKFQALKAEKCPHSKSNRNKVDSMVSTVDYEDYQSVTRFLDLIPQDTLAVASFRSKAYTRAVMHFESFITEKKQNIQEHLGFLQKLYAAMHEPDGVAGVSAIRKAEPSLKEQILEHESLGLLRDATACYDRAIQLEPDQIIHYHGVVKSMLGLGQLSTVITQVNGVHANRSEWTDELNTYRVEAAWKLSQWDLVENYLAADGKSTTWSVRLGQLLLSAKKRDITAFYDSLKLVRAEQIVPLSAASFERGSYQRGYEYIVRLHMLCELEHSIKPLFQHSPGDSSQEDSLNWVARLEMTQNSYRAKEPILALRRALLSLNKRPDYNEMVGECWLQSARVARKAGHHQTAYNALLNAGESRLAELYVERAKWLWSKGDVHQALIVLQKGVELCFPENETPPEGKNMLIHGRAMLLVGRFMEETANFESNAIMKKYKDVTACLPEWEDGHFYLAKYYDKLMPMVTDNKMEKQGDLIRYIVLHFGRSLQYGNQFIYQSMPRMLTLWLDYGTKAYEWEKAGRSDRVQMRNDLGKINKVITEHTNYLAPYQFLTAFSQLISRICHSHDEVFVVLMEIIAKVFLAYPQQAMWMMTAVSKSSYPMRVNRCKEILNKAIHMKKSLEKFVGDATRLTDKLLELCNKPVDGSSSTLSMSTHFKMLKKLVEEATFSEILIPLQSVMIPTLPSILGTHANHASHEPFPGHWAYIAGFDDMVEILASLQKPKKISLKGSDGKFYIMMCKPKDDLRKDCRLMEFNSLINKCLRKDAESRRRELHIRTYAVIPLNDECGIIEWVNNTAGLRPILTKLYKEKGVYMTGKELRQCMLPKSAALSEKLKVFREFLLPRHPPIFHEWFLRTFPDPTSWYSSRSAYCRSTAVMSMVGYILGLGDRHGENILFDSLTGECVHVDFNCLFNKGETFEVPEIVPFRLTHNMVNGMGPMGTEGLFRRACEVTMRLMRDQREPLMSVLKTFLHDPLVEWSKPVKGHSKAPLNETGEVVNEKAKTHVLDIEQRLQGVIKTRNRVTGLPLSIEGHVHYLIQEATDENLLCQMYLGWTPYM
Sequence of ATR/ATRIP (Q8WXE1 whole entry, further chain): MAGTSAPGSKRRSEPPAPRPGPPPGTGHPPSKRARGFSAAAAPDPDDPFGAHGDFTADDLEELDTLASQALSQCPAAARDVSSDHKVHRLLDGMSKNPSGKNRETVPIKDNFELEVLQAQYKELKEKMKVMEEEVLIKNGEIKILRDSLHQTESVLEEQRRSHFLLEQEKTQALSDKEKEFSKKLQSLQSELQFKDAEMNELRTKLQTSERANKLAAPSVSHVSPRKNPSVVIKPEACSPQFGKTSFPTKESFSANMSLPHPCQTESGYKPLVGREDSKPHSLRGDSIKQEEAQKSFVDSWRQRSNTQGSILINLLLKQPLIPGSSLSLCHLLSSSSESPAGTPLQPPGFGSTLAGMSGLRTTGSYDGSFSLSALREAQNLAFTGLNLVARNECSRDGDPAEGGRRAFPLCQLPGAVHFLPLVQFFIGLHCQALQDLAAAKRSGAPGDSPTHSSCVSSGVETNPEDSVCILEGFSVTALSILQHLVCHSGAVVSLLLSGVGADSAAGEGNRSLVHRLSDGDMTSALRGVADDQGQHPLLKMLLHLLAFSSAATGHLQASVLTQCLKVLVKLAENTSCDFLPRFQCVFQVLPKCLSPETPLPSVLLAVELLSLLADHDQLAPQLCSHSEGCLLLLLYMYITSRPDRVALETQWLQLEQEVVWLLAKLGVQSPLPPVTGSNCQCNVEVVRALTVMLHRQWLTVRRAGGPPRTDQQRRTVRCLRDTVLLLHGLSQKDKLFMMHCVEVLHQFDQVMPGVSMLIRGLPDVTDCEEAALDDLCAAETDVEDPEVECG

[36] = system: LoVo; experiment: Inhibition of cell growth in human LoVo cells assessed as measuring ATP content incubated for 3 days by Cell Titer Glo assay; assay type: functional, cell-based; conditions: 72 h
[37] = Half life in overnight fasted Sprague-Dawley rat at 2 mg/kg, po via gavage measured for 0.25 to 24 hrs by LC/MS/MS analysis; assay type: ADME, organism-based; conditions: in vivo, time 0.25-24 hrs
[38] = Cmax in overnight fasted Sprague-Dawley rat at 2 mg/kg, po via gavage measured for 0.25 to 24 hrs by LC/MS/MS analysis; assay type: ADME, organism-based; set-up: dose 2 mg/kg, time upper 24 hrs, time lower 0.25 hrs, route po; conditions: in vivo
[39] = AUC in overnight fasted Sprague-Dawley rat at 2 mg/kg, po via gavage measured for 0.25 to 24 hrs by LC/MS/MS analysis; assay type: ADME, organism-based; set-up: time 0.25-24 hrs, dose 2 mg/kg, route po; conditions: in vivo
[40] = Half life in Sprague-Dawley rat at 10 mg/kg, iv by LC-MS/MS analysis; assay type: ADME, organism-based; conditions: in vivo
[41] = target: T3, Serine/threonine-protein kinase ATR (Homo sapiens, UniProt Q13535); experiment: Binding affinity to ATR (unknown origin) assessed as inhibition constant
T3 sequence (Q13535 whole entry): as the sequence (Q13535 whole entry) above

[42] = target: T3, Serine/threonine-protein kinase ATR; experiment: Inhibition of ATR (unknown origin)-driven CHK1 phosphorylation

T1 sequence (P30291 whole entry): as the sequence (P30291 whole entry) above

SMILES: COc1ccc(C2(c3cc(-c4ncnc5cc(N6CCOCC6)ccc45)c(F)cc3Cl)CC2)nn1
IC50 [6]: 29 nM | half-life [7]: 0.59 h | AUC(0-t) [8]: 2260 ng·h/mL

SMILES: C=CCn1c(=O)c2cnc(Nc3ccc(N4CCN(CCCNc5cccc6c5C(=O)N(C5CCC(=O)NC5=O)C6=O)CC4)cc3)nc2n1-c1cccc(C(C)(C)O)n1 (configuration not stated)
IC50 [9]: 3.58 nM | EC50 [10]: 100 nM

SMILES: Cc1cc2ncnn2cc1Nc1ncc2c(n1)n(N1CC3CCC(C1)O3)c(=O)n2C
half-life [11]: 1.28 h | AUC(0-t) [12]: 1.66 µM·h | Cmax [13]: 2170 nM | Tmax [14]: 0.25 h | half-life [15]: 3.85 h | AUC(0-t) [16]: 3.49 µM·h | bioavailability [17]: 44.5% | inhibition in vivo at 90 mg/kg [18]: 79.4%

SMILES: COc1cc(F)cc(OCCCN)c1-c1cc(Nc2cnc(C#N)cn2)n[nH]1
IC50 [19]: < 1 nM | AUC(0-t) [20]: 4640 ng·h/mL | TGI [21]: 51%

SMILES: C=CCn1c(=O)c2cnc(Nc3ccc(N4C[C@H]5CN(C)C[C@H]5C4)cc3)nc2n1-c1ccc(C(C)(C)O)cn1
IC50 [22]: 1.83 nM | Cmax [23]: 241 nM | Tmax [24]: 1.8 min | half-life [25]: 0.92 h | AUC(0-t) [26]: 191 ng·h/mL | Cmax [27]: 121 nM | Tmax [28]: 1.33 h | half-life [29]: 1.32 h | AUC(0-t) [30]: 409 ng·h/mL | bioavailability [31]: 64.3%

SMILES: CN1CCN(C2CCN(c3ccc(Nc4ncc5c(F)c(C6CC6)n(-c6cccc(C(C)(C)O)n6)c5n4)cc3F)CC2)CC1
Cmax [32]: 117 nM | AUC(0-t) [33]: 4580 ng·h/mL

SMILES: CCOC(=O)NCCCOc1cc(F)cc(OC)c1-c1cc(Nc2cnc(C#N)cn2)n[nH]1
IC50 [19]: < 50 nM | half-life [40]: 5.3 h | AUC(0-t) [20]: 2990 ng·h/mL

More lines, main results first:

IC50 [1]: 29 nM | half-life [2]: 1.69 h | AUC(0-t) [3]: 6.04 µM·h | bioavailability [4]: 62.4%
SMILES: CN1CCN(c2ccc(Nc3ncc4c(=O)n5n(c4n3)-c3cccc(n3)[C@@](C)(O)CCC/C=C\C5)cc2)CC1
inhibition in vivo at 40 mg/kg [5]: 84.7%

IC50 [1]: 57 nM
SMILES: CN1CC2CN(c3ccc(Nc4ncc5c(=O)n6n(c5n4)-c4cccc(n4)C(C)(O)CCC/C=C\C6)cc3)CC2C1 (configuration not stated)

Cmax [32]: 163 nM | AUC(0-t) [33]: 4070 ng·h/mL | IC50 [34]: 1.03 nM
SMILES: CN1CCC2(CC1)CCN(c1ccc(Nc3ncc4cc(C5CC5)n(-c5cccc(C(C)(C)O)n5)c4n3)cc1)CC2

IC50 [35]: 15 nM | IC50 [36]: 124 nM | half-life [37]: 2.23 h | Cmax [38]: 674 ng/mL | AUC [39]: 2710 ng·h/mL
SMILES: C[C@@H]1COCCN1c1nc(-c2ccnn2C)c2c(n1)c(-c1ccn[nH]1)nn2C

Ki [41]: < 0.15 nM | IC50 [42]: 8 nM
SMILES: Nc1nn2cc(F)cnc2c1C(=O)Nc1cncc(F)c1N1CCC(C(=O)N2CCN(C3COC3)CC2)CC1 [M4344]
